Experimental data from US6562866B1 (priority 1998, dated 2003).

Key:
ACAT = ACAT assay on liver microsomes of the fed rats; type: biochemical; conditions: liver microsomes of rats fed 0.1% test substance in 1% cholesterol diet, versus control group
Procedure: 1 g each of the livers taken from each group of rats of Example 2 was homogenized in 5 ml of homogenization medium (0.1 M KH2PO4, pH 7.4, 0.1 mM EDTA and 10 mM β-mercaptoethanol). The homogenate was centrifuged at 3,000×g for 15 min. at 4° C. and the supernatant thus obtained was centrifuged at 15,000×g for 15 min. at 4° C. to obtain a supernatant. The supernatant was put into an ultracentrifuge tube (Beckman) and centrifuged at 100,000×g for 1 hour at 4° C. to obtain microsomal pellets, which were then suspended in 3 ml of the homogenization medium and centrifuged at 100,000×g for 1 hour at 4° C. The pellets thus obtained were suspended in 1 ml of the homogenization medium. The protein concentration of the resulting suspension was determined by Lowry's method and then adjusted to 4 to 8 mg/ml. The resulting suspension was stored in a deep freezer (Biofreezer, Forma Scientific Inc.). […]
200 μl of the resulting supernatant was put in a scintillation bottle and 4 ml of scintillation fluid (Lumac) was added thereto. The mixture was assayed for radioactivity with 1450 Microbeta liquid scintillation counter (Wallacoy, Finland). ACAT activity was calculated as picomoles of cholesteryl oleate synthesized per min. per mg protein (pmoles/min/mg protein).

HMG-CoA reductase = target: T1, HMG-CoA reductase (Rattus norvegicus, UniProt P51639); experiment: HMG-CoA reductase activity assay on liver microsomes of the fed rats; type: biochemical; conditions: liver microsomes of rats fed 0.1% test substance in 1% cholesterol diet, versus control group
T1 construct: the supernatant was ultracentrifuged at 100,000×g for 60 minutes to obtain microsomal precipitates; from tissue; host or cells: liver microsomes of the fed rats
T1 sequence (P51639 1-887): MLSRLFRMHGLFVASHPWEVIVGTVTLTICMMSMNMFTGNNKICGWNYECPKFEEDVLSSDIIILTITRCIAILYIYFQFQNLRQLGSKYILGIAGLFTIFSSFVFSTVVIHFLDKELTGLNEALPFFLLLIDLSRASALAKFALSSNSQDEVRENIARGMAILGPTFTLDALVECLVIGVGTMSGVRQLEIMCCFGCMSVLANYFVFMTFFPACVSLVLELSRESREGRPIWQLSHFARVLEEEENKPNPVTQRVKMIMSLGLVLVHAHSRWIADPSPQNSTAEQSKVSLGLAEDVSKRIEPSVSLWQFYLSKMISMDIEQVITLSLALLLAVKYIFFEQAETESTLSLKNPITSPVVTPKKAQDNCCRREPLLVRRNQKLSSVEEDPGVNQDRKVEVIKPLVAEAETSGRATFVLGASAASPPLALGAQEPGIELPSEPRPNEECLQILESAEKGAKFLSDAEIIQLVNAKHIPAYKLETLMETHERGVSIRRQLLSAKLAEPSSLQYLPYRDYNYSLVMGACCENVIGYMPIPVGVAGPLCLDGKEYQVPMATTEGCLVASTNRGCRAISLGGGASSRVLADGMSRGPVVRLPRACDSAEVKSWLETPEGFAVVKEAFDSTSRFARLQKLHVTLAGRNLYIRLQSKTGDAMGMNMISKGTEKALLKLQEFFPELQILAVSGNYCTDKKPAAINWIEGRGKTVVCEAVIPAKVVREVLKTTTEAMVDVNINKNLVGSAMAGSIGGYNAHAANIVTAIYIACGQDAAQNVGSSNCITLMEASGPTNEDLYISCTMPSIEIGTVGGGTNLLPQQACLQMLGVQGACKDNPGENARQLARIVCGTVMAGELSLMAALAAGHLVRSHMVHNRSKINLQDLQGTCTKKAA
Procedure: In order to determine the activity of HMG-COA reductase, Hulcher's method was employed after some modification (see J. Lipid Res., 14, 625-641(1973)). In this method, the concentration of the coenzyme-A (CoA-SH), which is produced when HMG-CoA is reduced to a mevalonate salt by the action of HMG-CoA reductase, is determined by spectroscopy and the activity of HMG-CoA reductas e is calculated therefrom.
3g of liver tissue taken from each group of rats of Example 2 was washed successively with 100 ml of a cold saline (0.15M NaCl) and 100 ml of a cold buffer solution A (0.1M triethanolamine, HCl/0.2M EDTA/2 mM dithiothreitol (DTT)). The cold buffer solution A was added to the liver tissue in an amount of 2 ml per 1 g of the liver tissue and the mixture was homogenized with a homogenizer. The homogenate was centrifuged at 15,000×g for 15 minutes, and then, the supernatant was ultracentrifuged at 100,000×g for 60 minutes to obtain microsomal precipitates. The precipitates thus obtained was washed with a cold buffer solution A and kept in a 1.5 ml tube at −70° C. […]
Then, the reactant was mixed with 20 μl of DTNB buffer solution (3mM DTNB/0.1M triethanolamine/0.2M EDTA, pH 7.4) and the absorbance of the mixture was determined at 412 nm to calculate the amount of CoA-SH (activity of HMG-CoA reductase activity).

[1] = Plasma total cholesterol, HDL-cholesterol and neutral lipid in rats fed high-cholesterol diets; type: in vivo, Sprague-Dawley rats; conditions: six weeks
Procedure: 30 three-week-old white Sprague-Dawley rats (Taihan laboratory animal center, Korea), each weighing about 90 to 110 g, were evenly divided into three dietary groups by a randomized block design.
The rats were allowed to feed freely on the specified diet together with water for six weeks, the ingestion amount was recorded daily and the,rats were weighed every 7 days, and then the record was analyzed.
The rats of the dietary groups obtained in Step 1 were sacrificed and blood samples were taken therefrom. The blood was allowed to stand for 2 hours and centrifuged at 3,000 rpm for 15 minutes and the supernatant was separated and stored in a deep freezer before use. The chemical analysis of blood was carried out by employing a blood chemical analyzer (CIBA Corning 550 Express, USA) to determine the changes in total cholesterol, HDL-cholesterol and triglyceride levels.

[2] = system: main artery fatty streak / arterial endothelium; experiment: Analysis for fatty streak in the main artery of cholesterol-fed rabbits; type: in vivo, New Zealand White rabbits; conditions: for A: Proportion (%) of fatty streak region to the total arterial area: 1% cholesterol diet plus 0.1% rutin or quercetin or 1 mg/kg Lovastatin, 6 weeks, Oil Red O staining
Procedure: (§1) 24 three-month-old New Zealand White rabbits (Yeonam Horticulture and Animal Husbandry College, Korea), each weighing about 2.5 to 2.6 kg, were raised under a condition of temperature 20±2° C., relative humidity 55±5%, and photoperiod 12L/12D. […] RC4 diet comprises 7.6% moisture, 22.8% crude protein, 2.8% crude fat, 8.8% crude ash, 14.4% crude cellulose and 43.6% soluble nitrogen-free substances.
The chest of each of the rabbits sacrificed in Step 2 was incised. The downward portion of the main artery from the site 1 cm above the aortic valve was cut out in a length of about 5 cm and the fat surrounding the main artery was removed. The main artery was incised in the middle along the longitudinal axis and pinned to a dish. The moist artery was photographed and, then, the staining of fatty streaks was carried out in accordance with the method of Esper, E., et al. (J. Lab. Clin. Med., 121, 103-110 (1993)) as follows.
A part of the incised main artery was washed three times with anhydrous propylene glycol for 2 min and stained for 30 min. with a saturated solution of Oil Red O (ORO, Sigma Co.) dissolved in propylene glycol. Thereafter, the artery was washed twice with 85% propylene glycol for 3 min. to remove remaining staining solution and, then washed with physiological saline. The artery was photographed and the photograph was traced. The area of stained region (fatty streak region) was determined with an image analyzer (LEICA, Q-600, Germany) and its proportion (%) to the total arterial area was calculated.

[3] = Chemical analysis of blood of rabbits fed 1% cholesterol diets; type: in vivo, New Zealand White rabbits; conditions: 6 weeks; for lowering of total plasma cholesterol level as compared to the comparative group: 0.1% in 1% cholesterol diet
Procedure: as §1, with “substances. Rutin and quercetin were purchased from Sigma Co. (St. Louis, Mo.).” for “substances.”
The rabbits were fed for 6 weeks while being allowed free access to the diets and water.
After six weeks, the rabbits were anesthetized with an intramuscular injection of ketamine (50 mg/kg) in the femoral region and sacrificed. A blood sample was taken from the heart of each rabbit, allowed to stand for 2 hours and centrifuged at 3,000 rpm for 15 minutes and the supernatant serum was separated and stored in a freezer before use.
The chemical analysis of blood was carried out by employing a blood chemical analyzer (CIBA Corning 550 Express, USA) to determine the changes in GOT, GPT, γ-GTP, total cholesterol and triglyceride levels.

[4] = system: liver cells around the central vein; experiment: Microscopic grading of abnormal fat-containing cells in the liver of cholesterol-fed rabbits; type: in vivo, New Zealand White rabbits; conditions: 1% cholesterol plus 1 mg/kg Lovastatin or 0.1% rutin
Procedure: as §1

[5] = Administration of rutin capsules to humans, plasma lipid metabolism; type: in vivo, human; conditions: two men, daily oral dose of lomg/kg as capsule, 60 days, before vs after
Procedure: The plasma cholesterol and neutral lipid (triglyceride) contents were determined before and after the administration.

ICR mice = experiment: Toxicity of orally administered rutin (single oral dose, 10 day observation)
Procedure: 12 seven-week-old, specific pathogen-free ICR […] mice, six female mice each weighing about 25 to 29 g and six male mice each weighing about 34 to 38 g, were kept under an environment of 22±1° C., 55±5% relative humidity and 12L/12D photoperiod. Fodder (Cheiljedang Co., mouse and rat fodder) and water were sterilized and fed to the mice.
Further, on the 10th day, the mice were sacrificed and the internal organs were visually examined.

[6] = 1% cholesterol diet plus 0.1% test substance
[7] = 1% cholesterol diet plus 0.1% rutin or quercetin or 1 mg/kg Lovastatin

O=c1c(O)c(-c2ccc(O)c(O)c2)oc2cc(O)cc(O)c12 [Quercetin, quercetin]
% Inhibition on ACAT activity (ACAT): 20%
Inhibition of HMG-CoA reductase activity (%) (HMG-CoA reductase): 30%
increase of HDL-C/Total-C ratio compared with control group ([1]; 0.1% in 1% cholesterol diet): 54%
reduction of neutral lipid content compared with control group ([1]; 0.1% in 1% cholesterol diet): 17%
reduction of total plasma cholesterol level compared with control group ([1]; 0.1% in 1% cholesterol diet): 30%
HDL-C (HDL-cholesterol) [1, 6]: 41 ± 3 mg/dL
HDL-C/Total-C ratio (row head is a formula, MATH:00001) [1, 6]: 43
TG (triglyceride) [1, 6]: 81 ± 4 mg/dL
Total-C (total cholesterol) [1, 6]: 95 ± 5 mg/dL
A: Proportion (%) of fatty streak region to the total arterial area [2]: 8%
lowering of total plasma cholesterol level as compared to the comparative group [3]: 30%
TG (triglyceride) [3, 7]: 30.0 mg/dL
Total-C (total cholesterol) [3, 7]: 820.0 mg/dL

CC[C@H](C)C(=O)O[C@H]1C[C@@H](C)C=C2C=C[C@H](C)[C@H](CC[C@@H]3C[C@@H](O)CC(=O)O3)[C@H]21 [Lovastatin ®, Lovastatin, reference compound]
microscopic features of the liver (FIGS. 2B, 2C) [4]: many cells containing excessive fat
A: Proportion (%) of fatty streak region to the total arterial area [2]: 5%
layer of macrophage-lipid complex on the arterial endothelium (FIGS. 1B, 1C) ([2]; 1% cholesterol plus 1 mg/kg Lovastatin or 0.1% rutin): no or very thin layers
TG (triglyceride) [3, 7]: 65.6 mg/dL
Total-C (total cholesterol) [3, 7]: 1209.5 mg/dL

C[C@@H]1O[C@@H](OC[C@H]2O[C@@H](Oc3c(-c4ccc(O)c(O)c4)oc4cc(O)cc(O)c4c3=O)[C@H](O)[C@@H](O)[C@@H]2O)[C@H](O)[C@H](O)[C@H]1O [Rutin]
reduction of plasma cholesterol content [5]: 25%
reduction of plasma neutral lipid (triglyceride) content [5]: 20%
Inhibition of HMG-CoA reductase activity (%) (HMG-CoA reductase): 40%
reduction of neutral lipid content compared with control group ([1]; 0.1% in 1% cholesterol diet): 20%
reduction of total plasma cholesterol level compared with control group ([1]; 0.1% in 1% cholesterol diet): 21%
HDL-C (HDL-cholesterol) [1, 6]: 36 ± 2 mg/dL
TG (triglyceride) [1, 6]: 78 ± 3 mg/dL
survival at day 10 (ICR mice; mice, single oral dose of 1,000 mg/kg): All the mice were alive
pathological abnormality at autopsy (ICR mice; mice, single oral dose of 1,000 mg/kg, day 10): did not develop any pathological abnormality
toxicity (ICR mice; mouse, in vivo, po, 160 mg/kg): no toxicity
A: Proportion (%) of fatty streak region to the total arterial area [2]: 10%
lowering of total plasma cholesterol level as compared to the comparative group [3]: 30%
GOT [3, 7]: 87.0 IU/l
GPT [3, 7]: 33.9 IU/l
TG (triglyceride) [3, 7]: 35.3 mg/dL
Total-C (total cholesterol) [3, 7]: 798.2 mg/dL
γ-GTP [3, 7]: 1.92 IU/l
